# Experimental data reported in patent US20200017496A1 (priority 2017, published 2020).
# Where two headings read alike, the source gives them in different places.
# System: Escherichia coli (ECO) isolates
# Test: MIC of compounds alone and combined with antibacterials, broth microdilution (CLSI)
# Assay type: cell-based
# Conditions: for MIC: Escherichia coli
# Summary of the method: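 Log-phase bacteria at a final 5·10^5 CFU/mL in cation-adjusted Mueller-Hinton broth were incubated 16-20 h at 35° C in ambient air with compound alone or with an antibacterial. MIC was the lowest concentration preventing visible growth; combination MIC of the antibacterial was read at each compound concentration.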
compound,measurement,setting,value
"C=CC1=C(C(=O)O)N2C(=O)[C@@H](NC(=O)/C(=N\OCC(=O)O)c3csc(N)n3)[C@H]2SC1 [FIX, Cefixime]",MIC ATB in combination,"ECO UFR176, AF1 @ 4 μg/mL",<=0.25 μg/mL
same,MIC ATB in combination,"ECO UFR176, AF1 @ 8 μg/mL",<=0.25 μg/mL
same,MIC ATB in combination,"ECO UFR184, AF1 @ 4 μg/mL",8 µg/mL
same,MIC ATB in combination,"ECO UFR184, AF1 @ 8 μg/mL",<=0.25 μg/mL
same,MIC ATB in combination,"ECO UFR185, AF1 @ 4 μg/mL",4 µg/mL
same,MIC ATB in combination,"ECO UFR185, AF1 @ 8 μg/mL",<0.25 µg/mL
same,MIC ATB in combination,"ECO UFR186, AF1 @ 4 μg/mL",<=0.25 μg/mL
same,MIC ATB in combination,"ECO UFR186, AF1 @ 8 μg/mL",<=0.25 μg/mL
same,MIC ATB in combination,"ECO UFR187, AF1 @ 4 μg/mL",<=0.25 μg/mL
same,MIC ATB in combination,"ECO UFR187, AF1 @ 8 μg/mL",<=0.25 μg/mL
same,MIC ATB in combination,"ECO UFR189, AF1 @ 4 μg/mL",<=0.25 μg/mL
same,MIC ATB in combination,"ECO UFR189, AF1 @ 8 μg/mL",<=0.25 μg/mL
same,MIC ATB in combination,"ECO UFR190, AF1 @ 4 μg/mL",<=0.25 μg/mL
same,MIC ATB in combination,"ECO UFR190, AF1 @ 8 μg/mL",<=0.25 μg/mL
same,MIC ATB in combination,"ECO UFR191, AF1 @ 4 μg/mL",<=0.25 μg/mL
same,MIC ATB in combination,"ECO UFR191, AF1 @ 8 μg/mL",<=0.25 μg/mL
same,MIC ATB in combination,"ECO UFR207, AF1 @ 4 μg/mL",<=0.25 μg/mL
same,MIC ATB in combination,"ECO UFR207, AF1 @ 8 μg/mL",<=0.25 μg/mL
same,MIC ATB in combination,"ECO UFR208, AF1 @ 4 μg/mL",64 µg/mL
same,MIC ATB in combination,"ECO UFR208, AF1 @ 8 μg/mL",32 µg/mL
same,MIC ATB in combination,"ECO UFR209, AF1 @ 8 μg/mL",0.063 µg/mL
same,MIC ATB in combination,"ECO UFR210, AF1 @ 4 μg/mL",<=0.25 μg/mL
same,MIC ATB in combination,"ECO UFR210, AF1 @ 8 μg/mL",<=0.25 μg/mL
same,MIC ATB in combination,"ECO UFR211, AF1 @ 4 μg/mL",<=0.25 μg/mL
same,MIC ATB in combination,"ECO UFR211, AF1 @ 8 μg/mL",<=0.25 μg/mL
same,MIC ATB in combination,"ECO UFR212, AF1 @ 4 μg/mL",64 µg/mL
same,MIC ATB in combination,"ECO UFR212, AF1 @ 8 μg/mL",<=0.25 μg/mL
same,MIC ATB in combination,"ECO UFR218, AF1 @ 4 μg/mL",<=0.25 μg/mL
same,MIC ATB in combination,"ECO UFR218, AF1 @ 8 μg/mL",<=0.25 μg/mL
same,MIC,"ECO 190317, alone, read-out: MIC",> 128 µg/mL
same,MIC,"ECO 190457, alone, read-out: MIC",128 µg/mL
same,MIC,"ECO UFR16, alone, read-out: MIC",> 128 µg/mL
same,MIC,"ECO UFR20, alone",512 µg/mL
same,MIC,"ECO UFR209, alone, read-out: MIC",1020 µg/mL
same,MIC,"strain ECO 4133 (TEM-30, OXA-1), ATB alone",0.5 µg/mL
same,MIC,"strain ECO 4133 (TEM-30, OXA-1), CLA @ 4 μg/ml+ ATB",0.5 µg/mL
same,MIC,"strain ECO 5302 (TEM-1, OXA-1), ATB alone",0.5 µg/mL
same,MIC,"strain ECO 5302 (TEM-1, OXA-1), CLA @ 4 μg/ml+ ATB",0.5 µg/mL
same,MIC,"strain ECO 131119 (TEM-1, OXA-48), ATB alone",≤ 0.25 µg/mL
same,MIC,"strain ECO 131119 (TEM-1, OXA-48), CLA @ 4 μg/ml+ ATB",≤ 0.25 µg/mL
same,MIC,"strain ECO 180070 (TEM-1, CTX-M-15), ATB alone, read-out: MIC",128 µg/mL
same,MIC,"strain ECO 190314 (CTX-M-1), ATB alone",16 µg/mL
same,MIC,"strain ECO 190317 (TEM-1, SHV-12, CTX-M-15, OXA-1), ATB alone, read-out: MIC",> 128 µg/mL
same,MIC,"strain ECO 190317 (TEM-1, SHV-12, CTX-M-15, OXA-1), CLA @ 4 μg/ml+ ATB",0.5 µg/mL
same,MIC,"strain ECO 190457 (CTX-M-15, OXA-1), ATB alone, read-out: MIC",128 µg/mL
same,MIC,"strain ECO 190457 (CTX-M-15, OXA-1), CLA @ 4 μg/ml+ ATB",0.5 µg/mL
same,MIC,"strain ECO 190549 (CTX-M-1), ATB alone",16 µg/mL
same,MIC,"strain ECO 190549 (CTX-M-1), CLA @ 4 μg/ml+ ATB",0.5 µg/mL
same,MIC,"strain ECO 200159 (TEM-1, CTX-M-14), ATB alone",8 µg/mL
same,MIC,"strain ECO 200159 (TEM-1, CTX-M-14), CLA @ 4 μg/ml+ ATB",≤ 0.25 µg/mL
same,MIC,"strain ECO 200259 (CTX-M-14), ATB alone",8 µg/mL
same,MIC,"strain ECO 200259 (CTX-M-14), CLA @ 4 μg/ml+ ATB",≤ 0.25 µg/mL
same,MIC,"strain ECO 200344 (CTX-M-1), CLA @ 4 μg/ml+ ATB",0.5 µg/mL
same,MIC,"strain ECO 260096 (CTX-M-132), ATB alone, read-out: MIC",> 128 µg/mL
same,MIC,"strain ECO 260096 (CTX-M-132), CLA @ 4 μg/ml+ ATB",1 µg/mL
same,MIC,"strain ECO 260304 (CTX-M-15), CLA @ 4 μg/ml+ ATB",0.5 µg/mL
same,MIC,"strain ECO 260508 (TEM-1, CTX-M-15, OXA-1), ATB alone, read-out: MIC",> 128 µg/mL
same,MIC,"strain ECO 260508 (TEM-1, CTX-M-15, OXA-1), CLA @ 4 μg/ml+ ATB",0.5 µg/mL
same,MIC,"strain ECO RGN238 (OXA-1), ATB alone",≤ 0.25 µg/mL
same,MIC,"strain ECO RGN238 (OXA-1), CLA @ 4 μg/ml+ ATB",≤ 0.25 µg/mL
same,MIC,"strain ECO UFR15 (TEM-1, OXA-48), ATB alone",1 µg/mL
same,MIC,"strain ECO UFR15 (TEM-1, OXA-48), CLA @ 4 μg/ml+ ATB",1 µg/mL
same,MIC,"strain ECO UFR16 (TEM-1, CTX-M-15, OXA-1, OXA-48), ATB alone, read-out: MIC",> 128 µg/mL
same,MIC,"strain ECO UFR16 (TEM-1, CTX-M-15, OXA-1, OXA-48), CLA @ 4 μg/ml+ ATB",4 µg/mL
same,MIC,"strain ECO UFR17 (TEM-1, CTX-M-15, CMY-2, OXA-1, OXA-181), ATB alone, read-out: MIC",> 128 µg/mL
same,MIC,"strain ECO UFR17 (TEM-1, CTX-M-15, CMY-2, OXA-1, OXA-181), CLA @ 4 μg/ml+ ATB, read-out: MIC",> 128 µg/mL
same,MIC,"strain ECO UFR18 (CTX-M-15, OXA-204), ATB alone, read-out: MIC",> 128 µg/mL
same,MIC,"strain ECO UFR18 (CTX-M-15, OXA-204), CLA @ 4 μg/ml+ ATB, read-out: MIC",> 128 µg/mL
same,MIC,"strain ECO UFR19 (CTX-M-15, CMY-2, OXA-1, OXA-204), ATB alone, read-out: MIC",> 128 µg/mL
same,MIC,"strain ECO UFR19 (CTX-M-15, CMY-2, OXA-1, OXA-204), CLA @ 4 μg/ml+ ATB, read-out: MIC",> 128 µg/mL
same,MIC,"strain ECO UFR20 (SHV-1, CTX-M-15, OXA-1, OXA-232), ATB alone",512 µg/mL
same,MIC,"strain ECO UFR20 (SHV-1, CTX-M-15, OXA-1, OXA-232), CLA @ 4 μg/ml+ ATB, read-out: MIC",> 128 µg/mL
same,MIC,"strain ECO UFR61O (TEM-1, KPC-2), CLA @ 4 μg/ml+ ATB, read-out: MIC",32 µg/mL
same,MIC,"strain ECO UFR62 (TEM-1, CTX-M-9, KPC-2), ATB alone, read-out: MIC",128 µg/mL
same,MIC,"strain ECO UFR62 (TEM-1, CTX-M-9, KPC-2), CLA @ 4 μg/ml+ ATB, read-out: MIC",32 µg/mL
same,MIC,"strain ECO UFR74 (SHV-1, DHA-1), ATB alone, read-out: MIC",> 128 µg/mL
same,MIC,"strain ECO UFR74 (SHV-1, DHA-1), CLA @ 4 μg/ml+ ATB, read-out: MIC",> 128 µg/mL
same,MIC,"strain ECO UFR86 (ompC-, ompF-), ATB alone, read-out: MIC",2 µg/mL
same,MIC,"strain ECO UFR86 (ompC-, ompF-), CLA @ 4 μg/ml+ ATB, read-out: MIC",2 µg/mL
